Here are results for two compounds from patent US20240159780A1, “PREDICTION OF AMOUNT OF IN VIVO DOPAMINE ETC., AND APPLICATION THEREOF” (Sumitomo Pharma Co., Ltd., priority 2021, published 2024).

“Also recorded” adds a separate entry of the source.

Data set [1] has as its system MPTP-induced PD-LID model rhesus monkeys. As to the kind of experiment: Number of blinks (eye tracking) after L-DOPA in MPTP-induced PD-LID model rhesus monkeys. The data set is classed as in vivo, rhesus monkey.
For data set [2] the test system is unchanged. As to the kind of experiment: Dyskinesia score and generalized dyskinesia score in MPTP-induced PD-LID model rhesus monkeys. The data set is classed as in vivo, rhesus monkey.
In data set [3] the test system is PD-LID model rats. As to the kind of experiment: Striatal dopamine release by microdialysis in PD-LID model rats. Format: in vivo, rat. The note with it: levodopa i.p. The procedure:
As a representative experimental model for Parkinson's disease, a rat striatal dopaminergic neuron destruction model is known in which 6-hydroxydopamine (hereinafter sometimes referred to as “6-OHDA”) is locally administered to one side of the brain (6-OHDA unilateral treated rat (6-OHDA injured rat)). Male Wistar rats (12 weeks old, Japan SLC, Inc.) were used to prepare model animals. Desipramine hydrochloride (25 mg/kg; Wako Pure Chemical Industries, Ltd.) was intraperitoneally administered, and 30 minutes after the administration, inhalation anesthesia with isoflurane was performed using a general anesthesia machine for experimental animals. Under isoflurane anesthesia, the rat was fixed in a stereotaxic apparatus, the skin of the head was incised with a surgical scalpel to expose the cranial bone, and the coordinate of bregma, which is the starting point (AP: 0, ML: 0, DV: 0), was confirmed, and the coordinate of the right medial forebrain bundle (AP: −4.4 mm, ML: 1.5 mm, DV: 7.8 mm from bregma) was measured. […]
In order to measure striatal dopamine release, guide cannula implantation into the striatum of PD-LID model rats and chromatography were performed by a method described in a reference (Pharmacol Res Perspect. 2015 June; 3(3): e00142.). […] Using an HPLC-ECD system (EiCOM Co., Ltd.), the amount of dopamine in the collected dialysate was measured. […]

Setting [4] is: L-DOPA 22 mg/kg with Benserazide, oral.

On to `N[C@@H](Cc1ccc(O)c(O)c1)C(=O)O` [L-DOPA, (S)-2-amino-3-(3,4-dihydroxyphenyl) propanoic acid], for which the “total number of blinks compared to vehicle” value in data set [1] (30 to 120 minutes after administration (60 to 150 minutes after start of measurement), one individual) is recorded as “tended to increase; also recorded: clear tendency to increase”. In data set [1] (L-DOPA 22 mg/kg with Benserazide 1/4 weight, oral, blinks tallied every 3 minutes), the “time after administration from which the number of blinks increased” value is on record as “about 30 minutes”. Moreover, the “time of peak of number of blinks with an intermediate duration (0.16≤T<0.18)” value in data set [1] (after oral L-DOPA 22 mg/kg, rapid decrease, then gradual increase) was “around 30 minutes”. Moreover, in data set [2] (setting [4]), the “time after administration at which the dyskinesia score increased” value is “about 20 minutes”, the “time after administration from which the score of generalized dyskinesia declined” value is on record as “around 150 minutes”, the “time after administration from which the score of generalized dyskinesia increased” value came to 60 min and the “time after administration of the peak dyskinesia score” value turned out to be 60 min. For the same compound, in data set [2] (setting [4]), the “time after administration of the peak score of generalized dyskinesia” value was “around 90 minutes”. Besides, the “decay of the dyskinesia score” value in data set [2] (L-DOPA 22 mg/kg with Benserazide, oral, measured for 180 minutes) is “did not decay until 180 minutes”.
`O=C1[C@@H]2[C@H]3CC[C@H](C3)[C@@H]2C(=O)N1CCCCN1CCN(c2ncccn2)CC1` [tandospirone]: in data set [3], the “rapid changes and temporal decreases in the dopamine amount in the synaptic cleft in the striatum” value was “suppresses”. Further, the dyskinesia score entry in data set [2] (tandospirone ointment transdermal 19 hours prior to testing, with L-DOPA, vs non-tandospirone administration) is on record as “decrease”.
